Test results from US20220193042A1, “NITAZOXANIDE AND THIAZOLIDES FOR USE IN THE TREATMENT OF DISEASES ASSOCIATED WITH OXIDATIVE STRESS” (GENFIT, priority 2019, published 2022).

Tests used:
Nrf2 target genes = assay: Enrichment of Nrf2 target genes in hepatic transcriptome (RNAseq), CDAA/c NASH model; type: in vivo, C57Bl/6J mice; settings: NTZ+CDAA/c vs CDAA/c; Nrf2 target genes are 1.3% of whole identified transcriptome
Method: In the current study, the preventive effects of NTZ 100 mg/kg/day were assessed in a murine model. 6 week-old male C57Bl/6J mice were fed a control (CSAA) diet (n=8), CDAA+1% cholesterol diet (n=12), or CDAA+1% cholesterol diet supplemented with NTZ 100 mg/kg/day (n=8) for 12 weeks. The food was purchased from Ssniff® company (Soest, Germany). Nitazoxanide (Interchim, Ref #RQ550) was incorporated by Ssniff® into CDAA+1% chol diet in powder form to the required dose.
The body weight and the food intake were monitored twice per week. On the last day of treatment, mice were sacrificed after a 6 h fasting period. The liver was rapidly excised for transcriptomic and histological studies.
Upon measurement of RNA samples concentration by nanodrop, the quality was assessed using bioanalyser. […]
Reads were cleaned using Trimmomatic v.0.36 with the following parameters: SLIDINGWINDOW:5:20 LEADING:30 TRAILING:30 MINLEN:60.Then reads were aligned on the genome reference (Mus musculus GRCm38.90) with rnacocktail using hisat2 v.2.1.0 as aligner with default parameters. […]
To identify differentially expressed genes (DE genes), we used R (version 3.4.3) and the DESEa2 library (v. 1.18.1). […] Briefly, the count matrix produced by FeatureCounts was analyzed by the DESeqDataSetFromMatrixO function followed by the DEseq( ) function from the DESeq2 library. […]

Nrf2-ARE signaling = assay: ARE Reporter - HepG2 cell line luciferase assay; type: cell-based, human; settings: 1 μM TZ, 18 h exposure, vs vehicle
Method: ARE Reporter—Hep G2 cells(BPS Bioscience, Inc., San Diego cat #60513) were cultured following manufacturer's instructions. After thawing (BPS thaw medium 1, cat #60187), cells were cultured in growth-medium (BPS growth medium 1K, cat #79533) and subsequently plated at a density of 40 000 cells par well in a 96-well microplate in 45 μl of assay medium (BPS thaw medium). TZ (Interchim; cat #RP253) & DL-Sulforaphane (Sigma; cat #S4441) were dissolved in DMSO and diluted into assay medium. 5 μl of 10× dilution were added on cells to reach a final concentration of 1 μM and 3 μM for TZ and DL-Sulforaphane (DL-Sulfo) respectively. After 18 h exposure, luciferase activity was determined. 50 μl of One-Step Luciferase assay system (BPS cat #60690) were added per well and after −15 min of rocking at room temperature, luminescence was measured using a luminometer.

Hep G2 cells = assay: Intracellular GSH detection (ThiolTracker Violet) in menadione-stressed Hep G2 cells; type: cell-based, human; settings: 1 μM TZ preincubated 1 hour, then 100 μM menadione for 2 hours
Method: Tizoxanide (Interchim; cat #RP253) was dissolved in DMF (Sigma; cat #227056). Menadione (Sigma; cat #M2518) and N-Acetylcysteine were dissolved (Sigma; cat #A9165) in water. Hep G2 cells (ECACC) were plated at a density of 20 000 cells par well into a 96-well microplate in 100 μl of DMEM (Gibco; cat #41965-039) supplemented with 1% P/S (Gibco; cat #15140-122), 1% glutamine(Gibco; cat #25030-024).The complete medium contained 10% SVF (Gibco; cat #10270-106). The next day, culture medium was removed and replaced by 100 μL of DMEM (Gibco; cat #31053-028) without Red Phenol and SVF but supplemented with 1% P/S (Gibco; cat #15140-122), 1% glutamine(Gibco; cat #25030-024). The serum deprived HepG2 were preincubated for 1 hour with TZ or N-Acetylcysteine (NAC) then exposed to Menadione (MND) for 2 hours. Compounds were dissolved in their respective vehicles a mentioned above and diluted in the deprived culture medium. […] The cellular level of reduced glutathione was subsequently monitored using the ThiolTracker Violet dye (Invitrogen, cat #T10096). Briefly, cells were washed two times with DPBS (Invitrogen, Cat #14287-080) then incubated for 30 min at 37° with 100 μl of prewarmed ThiolTracker Violet dye solution prepared in DPBS according the supplier 's instructions and fluorescence was measured (Ex:404 nm, Em: 526 nm)

Row | Structure (SMILES) | proportion of Nrf2-regulated genes among all differentially expressed genes (Nrf2 target genes) | ARE-mediated luciferase activity (ARE-mediated transcription) (Nrf2-ARE signaling) | prevention of MND-induced reduction of cellular GSH (Hep G2 cells)
1 | CC(=O)Oc1ccccc1C(=O)Nc1ncc([N+](=O)[O-])s1 [NTZ, [2-[(5-nitro-1,3-thiazol-2-yl)carbamoyl]phenyl]ethanoate] | more than 8% | – | –
2 | O=C(Nc1ncc([N+](=O)[O-])s1)c1ccccc1O [TZ, Tizoxanide] | – | significant increase | totally prevented
